Data as given in US20100286215A1, “BIS-AROMATIC COMPOUNDS USEFUL IN THE TREATMENT OF INFLAMMATION” (BIS-AROMATIC COMPOUNDS USEFUL IN THE TREATMENT OF …, priority 2007, published 2010).

target: T1, Recombinant human LTC4 synthase (Homo sapiens, UniProt Q16873); assay: LTC4 synthase assay (conversion of LTA4 methyl ester to LTC4 methyl ester, HPLC); format: biochemical; conditions: inhibitor concentration 10 μM
T1 construct: made in house; host or cells: Pichia pastoris ('Piccia pastoralis' [sic])
T1 sequence (Q16873 1-150): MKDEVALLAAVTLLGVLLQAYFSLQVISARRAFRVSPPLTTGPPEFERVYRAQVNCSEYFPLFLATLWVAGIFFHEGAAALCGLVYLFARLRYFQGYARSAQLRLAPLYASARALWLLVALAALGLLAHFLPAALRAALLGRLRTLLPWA
Method: In the assay LTC4 synthase catalyses the reaction where the substrate LTA4 methyl ester is converted to LTC4 methyl ester. Recombinant human LTC4 synthase is expressed in Piccia pastoralis and the purified enzyme is dissolved in 25 mM Tris-buffer pH 7.8 and stored at −20° C. The assay is performed in phosphate buffered saline (PBS) pH 7.4, supplemented with 5 mM glutathione (GSH). The reaction is terminated by addition of acetonitrile/MeOH/acetic acid (50/50/1). The assay is performed at rt in 96-well plates. Analysis of the formed LTC4 methyl ester is performed with reversed phase HPLC (Waters 2795 utilizing an Onyx Monolithic C18 column). The mobile phase consists of acetonitrile/MeOH/H2O (32.5/30/37.5) with 1% acetic acid pH adjusted with NH3 to pH 5.6, and absorbance measured at 280 nm with a Waters 2487 UV-detector.
The following is added chronologically to each well: • 1. 50 μl assay buffer, PBS with 5 mM GSH. • 2. 0.5 μl inhibitor in DMSO. • 3. 2 μl LTC4 synthase in PBS. The total protein concentration in this solution is 0.025 mg/ml. Incubation of the plate at room temperature for 10 minutes. • 4. 0.5 μl LTA4 methyl ester. Incubation of the plate at rt for 1 min. • 5. 50 μl stop solution. 80 μl of the incubation mixture is analysed with HPLC.

Structure (SMILES)	Percantage Inhibition at 10 μM (unless specified otherwise) [%]
CCCCOc1ccc(S(=O)(=O)Nc2ccc(C(=O)c3ccc(NS(=O)(=O)c4ccc(OCCCC)cc4)c(C(=O)O)c3)cc2C(=O)O)cc1 [Example 7]	97

same assay, conditions: inhibitor concentration 10 μM; read-out: Percantage Inhibition at 10 μM (unless specified otherwise)

inhibition at 10 µM [%]	Structure (SMILES)
71	CN(c1ccc(Cl)cc1)c1ccc(C(=O)c2ccc(Nc3ccc(C(F)(F)F)cc3)c(-c3nnn[nH]3)c2)cc1 [10:3, {4-[(4-Chloro-phenyl)-methyl-amino]-phenyl}-[3-(1H-tetrazol-5-yl)-4-(4-trifluoromethyl-phenylamino)-phenyl]-methanone]
88	O=C(Nc1ccc(C(=O)c2ccc(Oc3ccc(F)c(F)c3)c(C(=O)O)c2)cc1)c1cccc(Cl)c1 [8:4, 5-[4-(3-Chloro-benzoylamino)-benzoyl]-2-(3,4-difluoro-phenoxy)-benzoic acid]
100	O=C(Nc1ccc(C(=O)c2ccc(NC(=O)c3ccc(Cl)cc3Cl)c(C(=O)O)c2)cc1C(=O)O)c1ccc(OC(F)(F)F)cc1 [Example 11, 2-(4-(trifluoromethoxy)benzamido)-5-(4-(2,4-dichloro-benzamido)-3-carboxyphenyl-carbonyl)benzoic acid]
100	CCOc1ccc(NC(=O)Nc2ccc(C(=O)c3ccc(Nc4ccc(F)c(F)c4)c(C(=O)O)c3)cc2)cc1 [5:2, 2-(3,4-Difluoro-phenylamino)-5-{4-[3-(4-ethoxy-phenyl)-ureido]-benzoyl}-benzoic acid]
97	CN(c1ccc(Cl)cc1)c1ccc(C(=O)c2ccc(Oc3cccc4c3CCCC4)c(-c3nnn[nH]3)c2)cc1 [10:1, {4-[(4-Chloro-phenyl)-methyl-amino]-phenyl}-[4-(5,6,7,8-tetrahydro-naphthalen-1-yloxy)-3-(1H-tetrazol-5-yl)-phenyl]-methanone]
93	O=C(c1ccc(Nc2ccc(F)c(F)c2)c(C(=O)O)c1)c1ccc(Nc2ccc(F)c(F)c2)c(C(=O)O)c1 [Example 1, 2-(3,4-difluorophenylamino)-5-((4-(3,4-difluorophenylamino)-3-carboxyphenylcarbonyl))benzoic acid]
78	O=C(c1ccc(NC(=O)c2cc(Cl)ccc2O)cc1)c1ccc(Nc2ccc(F)c(F)c2)c(C(=O)O)c1 [5:4, 5-[4-(5-Chloro-2-hydroxy-benzoylamino)-benzoyl]-2-(3,4-difluoro-phenylamino)-benzoic acid]
84	O=C(c1ccc(Nc2ccc(Cl)cn2)cc1)c1ccc(Nc2ccc(F)c(F)c2)c(C(=O)O)c1 [5:6, 5-[4-(5-Chloro-pyridin-2-ylamino)-benzoyl]-2-(3,4-difluoro-phenylamino)-benzoic acid]
84	O=C(c1ccc(Nc2ccc(F)c(F)c2)cc1)c1ccc(Nc2ccc(F)c(F)c2)c(C(=O)O)c1 [5:3, 2-(3,4-Difluoro-phenylamino)-5-[4-(3,4-difluoro-phenylamino)-benzoyl]-benzoic acid]
100	O=C(c1ccc(Nc2ccc(Cl)cc2)cc1)c1ccc(Oc2ccc(F)c(F)c2)c(C(=O)O)c1 [8:3, 5-[4-(4-Chloro-phenylamino)-benzoyl]-2-(3,4-difluoro-phenoxy)-benzoic acid]
95	O=C(Nc1ccc(C(F)(F)F)cc1)Nc1ccc(C(=O)c2ccc(NC(=O)Nc3ccc(C(F)(F)F)cc3)c(C(=O)O)c2)cc1C(=O)O [Example 6, 2-[3-(4-trifluoromethylphenyl)-ureido]-5-{3-carboxy-4-[3-(4-trifluoromethylphenyl)ureido]-benzoyl}benzoic acid]
